Here are results for one compound from PMC2409523, “Hormonal impact of the 17α-hydroxylase/C17,20-lyase inhibitor abiraterone acetate (CB7630) in patients with prostate cancer” (British Journal of Cancer, 2004).

The structures appear in SMILES notation.

Series [1] has as its target 17α-hydroxylase/C17,20-lyase. On the set-up: method as in Barrie et al, 1997; Potter et al, 1995. As to conditions: inhibition of the 17α-hydroxylase/C17,20-lyase enzyme; ref Barrie et al, 1997; Potter et al, 1995; read-out: Kiapp; cited from earlier work.
Series [2] deals with testosterone synthesis. The experiment in a line: Study B: single dose study in noncastrate males with prostate cancer, serum hormone levels. It is filed as in vivo, human. The procedure: This was a single dose study in noncastrate males (testosterone level ⩾9.0 nmol l^−1) to determine the dose of abiraterone acetate that was sufficient to cause suppression of testosterone synthesis to castrate levels (⩽2.0 nmol l^−1).
This was a single-centre, open-label, phase one, single-dose study in which sequential cohorts of three noncastrate patients were to be treated at four dose levels: 200, 500, 650 and 800 mg. The starting dose of 200 mg was chosen when the results of study A were available.
All patients were required to have a normal testosterone level prior to study entry (i.e. ⩾9.0 nmol l^−1) as well as normal gonadotrophin levels (Luteinising Hormone (LH) ⩽13 IU l^−1).
(§1) Serum samples for endocrine analysis were obtained at 0, 2, 4, 8 and 24 h on a single day in the week prior to treatment commencement and then on Days 1, 2, 3, 4 and 7. As the duration of testosterone suppression was longer than originally anticipated, additional samples were added on Days 10, 14 and 21. The serum samples were analysed for testosterone, cortisol, 17 α-hydroxyprogesterone (17HP), androstenedione, LH and follicle-stimulating hormone (FSH) using commercially available kits. However, the DPC Coat-a-count kit for testosterone was sensitised using a larger volume of sample/standard and extension of the standard curve. […] All endocrine analyses were conducted by radioimmunoassay except for LH and FSH, which were by enzyme immunoassay.

In series [3] the test system is testosterone synthesis. Briefly: Study A: single dose study in castrate males with prostate cancer, serum hormone levels. It is filed as in vivo, human. The procedure:
Significant suppression was defined as either testosterone <0.14 nmol l^−1 in individual patients with a pretreatment value of <0.6 nmol l^−1 or a ⩾75% reduction in individual patients with a pretreatment value of ⩾0.6 nmol l^−1.
This was a single-centre, open-label, phase one, single-dose study in which sequential cohorts of three medically or surgically castrate patients were to receive treatment at five dose levels: starting at 10 mg and increasing to 30, 100, 200 and 500 mg. […] A confirmatory testosterone level of between 0.2 and 2.0 nmol l^−1 was also required.
as §1

Series [4] is described as follows: Pharmacokinetics in patient plasma (LC-MS). It counts as in vivo, human. The note with it: for Mean AUC: across all three studies. How it is done: Sample extracts were analysed by a fully validated liquid chromatography mass spectrometry method. The instrument consisted of Wisp Model 717 autosampler including a Model 600MS system controller with a quaternary U6K LC pump. A Finnigan MAT TSQ 700 triple quadrupole mass spectrometer was used as the detection system, together with Finnigan MAT ICIS and ICL software for data capture and processing (ThermoQuest Ltd, San Jose, CA, USA). The separation of analytes was performed on a Supelcosil LC-ABZ (5 μm, 250 × 4.6 mm) analytical column protected by a guard column (Supelco, Bellefonte, PA, USA). The mobile phase consisted of 570 ml of 20 mM ammonium acetate solution, 100 ml tetrahydrofuran and 1330 ml acetonitrile and was delivered at a flow rate of 1 ml min^−1 throughout the system. Column eluant was subjected to electrospray ionisation and monitored by selected ion monitoring (SIM) of protonated pseudo-molecular ions of authentic standards of abiraterone acetate and abiraterone, and GP488 (an analogue of abiraterone used as internal standard). For SIM, the scan width was 0.25 and the total scan time was 2.99 s. Also, heated capillary temperature=250°C, spray voltage=4.5 kV, collision offset=−49.9 V and electron multiplier voltage=1200 eV. Samples were extracted as follows: 50 μl of acetonitrile and 40 μl of 50 μM GP488 internal standard were added to 500 μl of patient plasma. […] The dried residue was reconstituted by vortexing in 150 μl of acetonitrile and transferred into autosampler vials. Aliquots (100 μl) of these samples were injected onto the LC column. […] A comprehensive PK profile (Cmax, Tmax, T1/2α T1/2 and Kabs) was determined for each patient. Pharmacokinetic parameters were evaluated using WinNonLin Software® and were conducted at The Institute of Cancer Research (Sutton). Blood was sampled for analysis of abiraterone concentration prior to drug administration and at the following times on Day 1: 30 min, 1, 2, 4, 6, 8 and 12 h. In the multidose study, samples were also drawn prior to treatment on Days 2, 3, 4, 7, 8, 9, 10, 11 and 14 with additional samples on Days 21 and 28. Samples (7 ml) were collected into vacutainer tubes (BD, Rutherford, NJ, USA) containing EDTA and immediately centrifuged to separate the plasma. At least 2 ml of plasma was transferred into polypropylene tubes (NUNC) and frozen at –20° until analysis.

Setting [5] is: single oral dose 500 mg, noncastrate patients.

`C[C@]12CC[C@H](O)CC1=CC[C@@H]1[C@@H]2CC[C@]2(C)C(c3cccnc3)=CC[C@@H]12` [abiraterone, 17-(3-pyridyl)androsta-5,16-dien-3β-ol]: in series [1], the Ki is 0.5 nM. Moreover, the testosterone suppression result in series [2] (single oral dose 200 mg, first noncastrate patient) is “No testosterone suppression”. Also, the “reduction in testosterone level from baseline” value in series [2] (single oral dose 500 mg, all three noncastrate patients) was “more than 50%”. In addition, the “recovery of LH to pretreatment levels” value in series [2] (setting [5]) is no more than 10 days. Besides, the “recovery of testosterone to pretreatment levels after nadir” value in series [2] (setting [5]) lay within 6 to 9 days. Moreover, in series [2] (setting [5]), the “time of testosterone nadir” value is given as “second day after therapy”. Also, the “rise in LH levels” value in series [2] (single oral dose 500 mg, noncastrate patients, maximal on Day 3) is reported as 47–75%. This compound also had a serum cortisol level in series [3] (one patient at 500 mg, Day 1, baseline 409 nmol l^−1, felt inconsistent with suppression due to drug) of 81 nmol/L. In addition, in series [3] (single oral dose 200 mg, one castrate patient, within the first 24 h), the reduction in testosterone turned out to be 75%. Besides, the “levels of 17-hydroxyprogesterone” value in series [3] (single oral dose 500 mg, castrate males) is “no corresponding reduction”. Moreover, the mean androstenedione levels entry in series [3] (single oral dose 500 mg, castrate males, around Day 2) was “reduction in mean androstenedione levels”. Besides, in series [3] (single oral dose 500 mg, first cohort of three castrate patients, target <0.14 nmol l^−1 or ⩾75% reduction), the “patients with reduction in testosterone to the target level” value is “all three patients”. Further, in series [3] (single oral dose 500 mg, three additional castrate patients), the “patients with target testosterone suppression” value is listed as “one of these patients”. In addition, in series [3] (single oral dose 500 mg, two of the three castrate patients, post-therapy), the “days over which testosterone suppression was sustained” value is 2 to 5 days. In addition, the effect on testosterone entry in series [3] (single oral dose 10, 30 and 100 mg, castrate males) is on record as “no consistent effect”. Moreover, in series [4] (all doses greater than or equal to 200 mg), the “plasma levels of abiraterone” value was “Detectable levels”. Moreover, the results for the Mean AUC in series [4] (dose 200 mg), in series [4] (dose 500 mg) and in series [4] (dose 800 mg) were 0.31 µM·h, 1.22 µM·h and 5.6 µM·h, respectively.
